Data reported in patent publication US20200131142A1, “FARNESOID X RECEPTOR AGONISTS AND USES THEREOF” (Metacrine, Inc., priority 2017, published 2020).

What follows are molecules tested against T1, hFXR (Homo sapiens, UniProt Q96RI1) (assay: In Vitro FXR Assay (TK): hFXR/hRXR TK-ECRE-luc reporter in transfected CV-1 cells). Details: 18 hrs incubation, luminescence, compounds with maximum efficacy <25% of the Fexarmine control classified as '+'.
T1 construct: expressed in transfected cells; host or cells: CV-1 cells
T1 sequence (Q96RI1 1-486): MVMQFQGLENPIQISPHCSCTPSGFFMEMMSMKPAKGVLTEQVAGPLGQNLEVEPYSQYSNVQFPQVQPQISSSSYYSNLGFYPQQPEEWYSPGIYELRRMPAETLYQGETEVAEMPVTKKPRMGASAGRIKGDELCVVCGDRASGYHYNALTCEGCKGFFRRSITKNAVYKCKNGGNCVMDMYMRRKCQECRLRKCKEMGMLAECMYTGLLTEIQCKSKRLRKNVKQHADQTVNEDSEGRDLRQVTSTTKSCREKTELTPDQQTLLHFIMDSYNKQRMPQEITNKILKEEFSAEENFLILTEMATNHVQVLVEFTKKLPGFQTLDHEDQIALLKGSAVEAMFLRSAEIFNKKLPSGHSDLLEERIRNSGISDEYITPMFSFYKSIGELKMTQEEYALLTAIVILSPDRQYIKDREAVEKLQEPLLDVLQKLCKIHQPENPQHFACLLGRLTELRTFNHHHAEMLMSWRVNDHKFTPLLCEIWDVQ
T1 sequence (P19793 1-462 partner): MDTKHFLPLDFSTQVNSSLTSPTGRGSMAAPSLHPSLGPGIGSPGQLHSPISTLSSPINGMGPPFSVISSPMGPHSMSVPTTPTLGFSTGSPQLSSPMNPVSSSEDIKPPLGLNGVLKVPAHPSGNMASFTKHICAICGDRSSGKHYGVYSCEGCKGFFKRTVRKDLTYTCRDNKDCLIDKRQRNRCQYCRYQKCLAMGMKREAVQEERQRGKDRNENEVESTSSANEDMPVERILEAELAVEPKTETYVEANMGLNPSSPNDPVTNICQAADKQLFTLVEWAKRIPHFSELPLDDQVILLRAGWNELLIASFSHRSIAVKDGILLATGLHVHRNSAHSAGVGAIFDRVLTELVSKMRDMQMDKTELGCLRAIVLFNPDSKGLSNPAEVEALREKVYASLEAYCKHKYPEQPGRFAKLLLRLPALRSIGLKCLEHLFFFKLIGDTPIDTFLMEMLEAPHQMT
Assay type: cell-based
Experimental: Example B-1: In Vitro FXR Assay (TK)
CV-1 cells were seeded at a density of 2,000,000 cells in a T175 flask with DMEM+10% charcoal double-stripped FBS and incubated at 37° C. in 5% CO2 for 18 h (O/N).
After 18 h of incubation, the medium in the T175 flask was changed with fresh DMEM+10% charcoal super-stripped serum. In a polypropylene tube, 2500 μL OptiMEM (Life Technologies, Cat #31985-062) was combined with expression plasmids for hFXR, hRXR, TK-ECRE-luc and pCMX-YFP. The tube was then briefly vortexed and incubated at room temperature for 5 minutes. Transfection reagent (X-tremeGENE HP from Roche, Cat #06 366 236 001) was added to the OptiMEM/plasmid mixture vortexed and incubated at room temperature for 20 minutes. Following incubation, the transfection reagent/DNA mixture complex was added to cells in the T175 flask and the cells were incubated at 37° C. in 5% CO2 for 18 h (O/N).
Compounds were serially diluted in DMSO and added to transfected CV-1 cells. The cells were then incubated for 18 hrs. The next day cells were lysed and examined for luminescence.
In the case of `C#Cc1cc([C@H]2CC[C@H](CN(c3cccc(-c4cnc(OC)s4)c3)C(=O)[C@H]3CC[C@H](O)CC3)CC2)ccc1OC` [Compound 9.05, trans-N-((trans-4-(3-Ethynyl-4-methoxyphenyl)cyclohexyl)methyl)-4-hydroxy-N-(3-(2-methoxythiazol-5-yl)phenyl)cyclohexanecarboxamide], the EC50 is reported as no more than 250 nM. In the case of `COc1ccc([C@H]2CC[C@H](CN(c3cccc(-c4cnc(O)s4)c3)C(=O)[C@H]3CC[C@H](O)CC3)CC2)cc1C` [Compound 3, trans-4-Hydroxy-N-(3-(2-hydroxythiazol-5-yl)phenyl)-N-((trans-4-(4-methoxy-3-methylphenyl)cyclohexyl)methyl) cyclohexanecarboxamide], the EC50 is reported as 250 to 1000 nM. Work on `COc1ccc(C23CCC(CN(c4cccc(-c5cnc(C6CC6)s5)c4)C(=O)[C@H]4CC[C@H](O)CC4)(CC2)CC3)cc1C` [Compound 10, trans-N-(3-(2-Cyclopropylthiazol-5-yl)phenyl)-4-hydroxy-N-((4-(4-methoxy-3-methylphenyl)bicyclo[2.2.2]octan-1-yl)methyl)cyclohexanecarboxamide] yielded an EC50 of no more than 250 nM. With `COc1ccc([C@H]2CC[C@H](CN(c3cccc(CCc4nccs4)c3)C(=O)[C@H]3CC[C@H](O)CC3)CC2)cc1C` [Compound 6.07, trans-4-Hydroxy-N-((trans-4-(4-methoxy-3-methylphenyl)cyclohexyl)methyl)-N-(3-(2-(thiazol-2-yl)ethyl)phenyl)cyclohexanecarboxamide] the EC50 was no more than 250 nM. `COc1ccc([C@H]2CC[C@H](CN(c3cccc(C#Cc4nc(C)cs4)c3)C(=O)[C@H]3CC[C@H](O)CC3)CC2)cc1C` [Compound 8.03, trans-4-Hydroxy-N-((trans-4-(4-methoxy-3-methylphenyl)cyclohexyl)methyl)-N-(3-((4-methylthiazol-2-yl)ethynyl)phenyl)cyclohexanecarboxamide] showed an EC50 of no more than 250 nM. With `Cn1nc(F)c2cc([C@H]3CC[C@H](CN(c4cccc(-c5cnc(C6CC6)s5)c4)C(=O)[C@H]4CC[C@H](O)CC4)CC3)ccc21` [Compound 9, trans-N-(3-(2-Cyclopropylthiazol-5-yl)phenyl)-N-((trans-4-(3-fluoro-1-methyl-1H-indazol-5-yl)cyclohexyl)methyl)-4-hydroxycyclohexanecarboxamide] the EC50 was no more than 250 nM. For `COc1ccc([C@H]2CC[C@H](CN(c3cccc(/C=C/c4nccs4)c3)C(=O)[C@H]3CC[C@H](O)CC3)CC2)cc1C` [Compound 6.06, trasn-4-Hydroxy-N-((trans-4-(4-methoxy-3-methylphenyl)cyclohexyl)methyl)-N-(3-((E)-2-(thiazol-2-yl)vinyl)phenyl)cyclohexanecarboxamide], the EC50 was no more than 250 nM. `COc1ncc(-c2cccc(N(CC34CCC(c5ccc(OC)c(C)c5)(CC3)CC4)C(=O)[C@H]3CC[C@H](O)CC3)c2)s1` [Compound 11, trans-4-Hydroxy-N-((4-(4-methoxy-3-methylphenyl)bicyclo[2.2.2]octan-1-yl)methyl)-N-(3-(2-methoxythiazol-5-yl)phenyl)cyclohexanecarboxamide] gave an EC50 of no more than 250 nM. `COc1ncc(-c2cccc(N(C[C@H]3CC[C@H](c4ccc(OC)c(C)c4)CC3)C(=O)C3CCC(F)(F)CC3)c2)s1` [Compound 9.32, 4,4-Difluoro-N-((trans-4-(4-methoxy-3-methylphenyl)cyclohexyl)methyl)-N-(3-(2-methoxythiazol-5-yl)phenyl)cyclohexanecarboxamide] showed an EC50 of no more than 250 nM. Molecule `CN(C)c1ccc([C@H]2CC[C@H](CN(c3cccc(-c4cnc(C5CC5)s4)c3)C(=O)[C@H]3CC[C@H](O)CC3)CC2)cn1` [Compound 9.07, trans-N-(3-(2-Cyclopropylthiazol-5-yl)phenyl)-N-((trans-4-(6-(dimethylamino)pyridin-3-yl)cyclohexyl)methyl)-4-hydroxycyclohexanecarboxamide] has an EC50 of no more than 250 nM. `CCO[C@H]1CC[C@H](C(=O)N(C[C@H]2CC[C@H](c3ccc(OC)c(C)c3)CC2)c2cccc(-c3cnc(OC)s3)c2)CC1` [Compound 4, trans-4-Ethoxy-N-((trans-4-(4-methoxy-3-methylphenyl)cyclohexyl)methyl)-N-(3-(2-methoxythiazol-5-yl)phenyl)cyclohexanecarboxamide] was tested, and the EC50 was 250 to 1000 nM. Molecule `CCOc1ncc(-c2cccc(N(C[C@H]3CC[C@H](c4ccc(OC)c(C)c4)CC3)C(=O)[C@H]3CC[C@H](O)CC3)c2)s1` [Compound 7.16, trans-N-(3-(2-Ethoxythiazol-5-yl)phenyl)-4-hydroxy-N-((trans-4-(4-methoxy-3-methylphenyl)cyclohexyl)methyl) cyclohexanecarboxamide] has an EC50 of no more than 250 nM. With `COc1ccc([C@H]2CC[C@H](CN(c3cccc(-c4cnc(OC(C)C)s4)c3)C(=O)[C@H]3CC[C@H](O)CC3)CC2)cc1C` [Compound 7.17, trans-4-Hydroxy-N-(3-(2-isopropoxythiazol-5-yl)phenyl)-N-((trans-4-(4-methoxy-3-methylphenyl)cyclohexyl)methyl) cyclohexanecarboxamide] the EC50 was no more than 250 nM. Work on `COc1ccc([C@H]2CC[C@H](CN(c3cccc(-c4cnc(SC)s4)c3)C(=O)[C@H]3CC[C@H](O)CC3)CC2)cc1C` [Compound 7.11, trans-4-Hydroxy-N-((trans-4-(4-methoxy-3-methylphenyl)cyclohexyl)methyl)-N-(3-(2-(methylthio)thiazol-5-yl)phenyl)cyclohexanecarboxamide] yielded an EC50 of no more than 250 nM. Work on `COc1ccc([C@H]2CC[C@H](CN(c3cc(-c4cnc(C(C)C)s4)ccn3)C(=O)[C@H]3CC[C@H](O)CC3)CC2)nc1C` [Compound 9.29, trans-4-Hydroxy-N-(4-(2-isopropylthiazol-5-yl)pyridin-2-yl)-N-((trans-4-(5-methoxy-6-methylpyridin-2-yl)cyclohexyl)methyl)cyclohexanecarboxamide] yielded an EC50 of no more than 250 nM. Molecule `COc1ncc(-c2cccc(N(C[C@H]3CC[C@H](c4ccc(OC)c(C)c4)CC3)C(=O)[C@H]3CC[C@@H](O)CC3)c2)s1` [Compound 5, cis-4-Hydroxy-N-((trans-4-(4-methoxy-3-methylphenyl)cyclohexyl)methyl)-N-(3-(2-methoxythiazol-5-yl)phenyl)cyclohexanecarboxamide] has an EC50 of no more than 250 nM. In the case of `COc1ccc([C@H]2CC[C@H](CN(c3cccc(COc4nccs4)c3)C(=O)[C@H]3CC[C@H](O)CC3)CC2)cc1C` [Compound 17, trans-4-Hydroxy-N-((trans-4-(4-methoxy-3-methylphenyl)cyclohexyl)methyl)-N-(3-((thiazol-2-yloxy)methyl)phenyl)cyclohexanecarboxamide], the EC50 is reported as no more than 250 nM. With `COc1ccc([C@H]2CC[C@H](CN(c3cc(-c4cnc(C5CC5)s4)ccn3)C(=O)[C@H]3CC[C@H](O)CC3)CC2)cc1C#N` [Compound 9.22, trans-N-((trans-4-(3-Cyano-4-methoxyphenyl)cyclohexyl)methyl)-N-(4-(2-cyclopropylthiazol-5-yl)pyridin-2-yl)-4-hydroxycyclohexanecarboxamide] the EC50 was no more than 250 nM. `COc1ncc(-c2cccc(N(C[C@H]3CC[C@H](c4ccc(OC)c(C)c4)CC3)C(=O)C3CCOCC3)c2)s1` [Compound 9.30, N-((trans-4-(4-Methoxy-3-methylphenyl)cyclohexyl)methyl)-N-(3-(2-methoxythiazol-5-yl)phenyl)tetrahydro-2H-pyran-4-carboxamide] showed an EC50 of no more than 250 nM. `COc1ccc([C@H]2CC[C@H](CN(c3cccc(C#Cc4nccs4)c3)C(=O)[C@H]3CC[C@H](O)CC3)CC2)cc1C` [Compound 18, trans-4-Hydroxy-N-((trans-4-(4-methoxy-3-methylphenyl)cyclohexyl)methyl)-N-(3-(thiazol-2-ylethynyl)phenyl)cyclohexanecarboxamide] showed an EC50 of no more than 250 nM. Molecule `COc1ccc([C@H]2CC[C@H](CN(c3cccc(-c4cnc(C)s4)c3)C(=O)[C@H]3CC[C@H](O)CC3)CC2)cc1C` [Compound 6.03, trans-4-Hydroxy-N-((trans-4-(4-methoxy-3-methylphenyl)cyclohexyl)methyl)-N-(3-(2-methylthiazol-5-yl)phenyl)cyclohexanecarboxamide] has an EC50 of no more than 250 nM.
